The source of these data is US7514245B2, “Method for producing chiral α-hydroxycarboxylic acids by enzymatic hydrolysis of chiral cyanohydrins” (DSM Fine Chemicals Austria NFG GmbH & Co. KG, priority 2003, dated 2009).

Assay [1] concerns the target T1, nitrile hydratase of Rhodococcus erythropolis NCIMB 11540 (Rhodococcus erythropolis, UniProt P13448+P13449).
T1 construct: made in house; host or cells: E. coli B BL21 (plasmid pMS470Nhase7.3 or pMSNhasetactac7.3), crude lysate
T1 sequence (P13448 1-207): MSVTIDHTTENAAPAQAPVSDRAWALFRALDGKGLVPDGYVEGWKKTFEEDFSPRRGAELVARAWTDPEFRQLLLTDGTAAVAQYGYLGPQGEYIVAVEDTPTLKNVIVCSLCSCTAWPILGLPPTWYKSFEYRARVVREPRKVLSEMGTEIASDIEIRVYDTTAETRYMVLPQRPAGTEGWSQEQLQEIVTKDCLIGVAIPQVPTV
T1 sequence (P13449 1-212): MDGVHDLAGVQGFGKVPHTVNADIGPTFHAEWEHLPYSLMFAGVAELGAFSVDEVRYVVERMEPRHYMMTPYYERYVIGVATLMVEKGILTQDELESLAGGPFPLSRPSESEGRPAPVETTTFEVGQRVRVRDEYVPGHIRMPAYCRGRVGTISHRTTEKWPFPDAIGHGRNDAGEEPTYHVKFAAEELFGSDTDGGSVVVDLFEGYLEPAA
Put plainly: Hydrolysis using the recombinant enzyme (crude lysate of E. coli clone 7.3). The class given is biochemical. Particulars: substrate approximately 10 mM, 5% DMSO, 30° C., pH 7; for Activity of the nitrile hydratase: relative to 2-hydroxy-4-phenylbutyronitrile (100%). The method, then: In these reactions, cloned nitrile hydratase of Rhodococcus erythropolis NCIMB 11540 was used as crude lysate of E. coli clone 7.3 (produced according to Example 9).
50 μl of crude lysate were diluted with 425 μl of buffer (K/Na—PO4 buffer, pH 7, 50 mM) and admixed with 25 μl of an approximately 220 mM substrate solution in DMSO (5 mg of protein/ml substrate concentration approximately 10 mM, 5% DMSO). The reaction was carried out in the Thermomixer at 30° C. and 1000 rpm. After 0, 2, 4, 6, 8, 10, 15, 20, 30, 60 and 120 minutes, in each case one Eppendorf was admixed with 0.5 ml of 1N HCl. After centrifugation (5 min, 13 000 rpm) and corresponding dilution, the concentrations of cyanohydrin and hydroxyamide were determined by HPLC. The activity of the nitrile hydratase was determined from the velocity of formation of hydroxyamide (gradient in the initial range). The standard substrate (100% activity) used was 2-hydroxy-4-phenylbutyronitile. The activity in the hydrolysis of the other substrates was compared with the activity on 2-hydroxy-4-phenylbutyronitrile (Tab. 5).

For assay [2], the system named is Rhodococcus erythropolis NCIMB 11540 cells. Put plainly: Enzymatic hydrolysis at different substrate concentrations, Experiment 4.1. The class given is cell-based. Particulars: 5% DMSO, 30° C. The procedure:
In experiment 4.1, the reaction was carried out on an analytical scale (reaction volume 1 ml) using 3 substrate concentrations (2.2 g/l, 6.6 g/l, 13.2 g/l).
The biocatalyst was produced according to Example 1, Variant II, 2 l of fermentation medium, harvest after 20 hours (OD546 6.1). The cells from 8 times 10 ml of fermentation solution were centrifuged off in culture tubes. The resultant cell mass was washed once in each case with 2 ml K/Na-phosphate buffer (pH 6.5, 50 mM). The contents of 2 tubes were lyophilized for determining the dry weight. • Weight: 1. 37 mg of lyophilized cells/10 ml fermentation solution • 2. 30 mg
The contents of the remaining 6 tubes were resuspended in 950 μl of buffer (OD approximately 40) and transferred to Eppendorfs. To each of these cell suspensions were added 50 μl of variously concentrated substrate solutions (3 concentrations, parallel batches, 5% DMSO as cosolvent). The Eppendorfs were shaken on the Thermomixer at 30° C. and 1000 rpm. For monitoring the conversion rate, in each case 200 μl were withdrawn and admixed with 200 μl of 1N HCl. After centrifugation (5 min, 13 000 rpm) and dilution, the conversion rates were determined by HPLC.
Following concentrations of (R)-2-chloromandelonitrile were used: • a. Substrate solution: 11 mg of (R)-2-chloromandelonitrile in 250 μl of DMSO (approximately 260 mM) • Substrate concentration in the batch: 2.2 g/l (13.1 mM) • b. Substrate solution: 33 mg of (R)-2-chloromandelonitrile in 250 μl of DMSO (approximately […]) • Substrate concentration in the batch: substrate concentration: 6.6 g/l (39.4 mM) • c. Substrate solution: 66 mg of (R)-2-chloromandelonitrile in 250 μl of DMSO (approximately 1580 mM) • Substrate concentration in the batch: 13.2 g/l (78.8 mM)

In the case of `N#CC(O)CCc1ccccc1` (stereo not shown) [drawing 3], in assay [1], the “Activity of the nitrile hydratase” value amounted to 100%.

With `N#CC(O)CCc1ccccc1` (stereo not shown) [2-hydroxy-4-phenylbutyronitrile], in assay [1] (E. coli clone 7.3), the “activity of the nitrile hydratase in the crude lysate” value is reported as “approximately 0.3 μmol·mg^−1·min^−1”.

Take `N#CC(O)c1ccccc1Cl` (stereo not shown): the “Activity of the nitrile hydratase” value in assay [1] stood at 100%.

Consider `O=C(O)[C@H](O)c1ccccc1Cl` [(R)-2-chloromandelic acid], for which the “formation of (R)-2-chloromandelic acid” value came out at 77% in assay [2] (batch a: 2.2 g/l (13.1 mM) (R)-2-chloromandelonitrile, 10 min); 86% in assay [2] (batch a: 2.2 g/l (13.1 mM), 20 min); 92% in assay [2] (batch a: 2.2 g/l (13.1 mM), 30 min); 94% in assay [2] (batch a: 2.2 g/l (13.1 mM), 40 min); 96% in assay [2] (batch a: 2.2 g/l (13.1 mM), 50 min); 45% in assay [2] (batch b: 6.6 g/l (39.4 mM), 10 min). For the same molecule, the “formation of (R)-2-chloromandelic acid” value was found to be 70% in assay [2] (batch b: 6.6 g/l (39.4 mM), 20 min); 82% in assay [2] (batch b: 6.6 g/l (39.4 mM), 30 min); 89% in assay [2] (batch b: 6.6 g/l (39.4 mM), 40 min); 95% in assay [2] (batch b: 6.6 g/l (39.4 mM), 50 min); 58% in assay [2] (batch c: 13.2 g/l (78.8 mM), 10 min); 85% in assay [2] (batch c: 13.2 g/l (78.8 mM), 20 min). Moreover, the “formation of (R)-2-chloromandelic acid” value in assay [2] (batch c: 13.2 g/l (78.8 mM), 30 min) is listed as 96%; in assay [2] (batch c: 13.2 g/l (78.8 mM), 40 min), 98%; in assay [2] (batch c: 13.2 g/l (78.8 mM), 50 min), 100%.

Turning to `Cc1ccc(C(O)C#N)cc1` (stereo not shown), the “Activity of the nitrile hydratase” value in assay [1] is 60%.
